From patent US20220049219A1, “AUTOMATED GENERATION AND ANALYSIS OF ORGANOIDS” (Max-Planck-Gesellschaft zur Förderung der Wissenschaften …, priority 2018, published 2022)

System: automated midbrain organoids (AMOs)
Test: 3D toxicology assay: cCasp3/Sox2 whole mount immunostaining and high content imaging of G418-treated organoids
Type: cell-based, human
Conditions: AMOs treated for 4 days starting at day 50 of culture; 0-1000 μg/mL; cCasp3+ cells normalized by aggregate area
Method: In order to analyze protein expression in 3D in a HTS-compatible manner, we adapted a whole mount staining protocol based on Lee et al. ACT-PRESTO: Rapid and consistent tissue 579 clearing and labeling method for 3-dimensional (3D) imaging. Sci Rep 6, 18631 (2016) for organoids and optimized it for use in an automated liquid handling system. After fixation with 4% PFA (VWR) for 10-15 minutes, we stained the organoids with primary and secondary antibodies (Alexa Fluor secondary antibodies, Thermo Fisher) for 6 days each. We diluted the antibodies in a blocking and permeabilization solution (6% BSA, 0.5% Triton-X 100 (Roth), 0.1% (w/v) sodium azide (Sigma-Aldrich) in PBS (Sigma-Aldrich)) and renewed it every 2 days. Between primary and secondary antibody incubation as well as after the staining procedure we washed the organoids 5 times for 1 h with 0.1% Triton X-100 in PBS. […]
After staining and clearing, we achieved uniform aggregate positioning within the wells by tilting the plates off the horizontal plane at 60 degrees for 1 minute. Image acquisition was carried out in an Operetta high content imager (Perkin Elmer) and images were analyzed in Harmony 4.1 software. […] We excluded image artifacts, small dust particles, and overlapping nuclei by omitting nuclei brighter than 6000 abu and larger than 70 μm2 from further quantification. […]

CN[C@@H]1[C@@H](O)[C@@H](O[C@@H]2[C@@H](O)[C@H](O[C@H]3O[C@H]([C@@H](C)O)[C@@H](O)[C@H](O)[C@H]3N)[C@@H](N)C[C@H]2N)OC[C@]1(C)O [G418]
IC50 from dose-response curve of number of apoptotic cCasp3+ cells against logarithmic drug concentration: 339 μg/mL
